In US4925865A, “Antimycotic agents” (Bayer Aktiengesellschaft, priority 1987, dated 1990):
≈ marks a conversion by molar mass, not a printed value.

How the values were obtained:
Microsporum canis = assay: Antimycotic in vitro activity, serial dilution test, Microsporum canis; assay type: cell-based; settings: Sabouraud's test medium, 28-37° C., 96 hours
Procedure: (§1) The in vitro tests were carried out in the serial dilution test using inocula of microorganisms of approximately 5×10^3 to 10^4 microorganisms/ml of substrate. The nutrient medium used was (a) for dermatophytes and Blastomycetes: Sabouraud's test medium (b) for yeasts: meat extract/dextrose broth. The incubation temperature was 28° C. to 37° C., and the incubation period was 24 to 96 hours with yeasts and 96 hours with dermatophytes and Blastomycetes.

Aspergillus fumigatus = assay: Antimycotic in vitro activity, serial dilution test, Aspergillus fumigatus; assay type: cell-based; settings: 28-37° C.
Procedure: as §1

Candida = assay: Antimycotic in vivo activity (oral) in mouse candidiasis; design: species or system mouse (SPF-CF1 type); settings: for action compared with compounds (A) and (B): oral 10-100 mg/kg; for Action (survival on the 6th day post infection): oral 10-100 mg/kg one hour before and seven hours after i.v. inoculation
Procedure: Mice of the SPF-CF1 type were intravenously inoculated with 1-2×10^6 logarithmically growing Candida cells, suspended in physiological saline solution. One hour before and seven hours after the inoculation, the animals are in each case orally treated with 10-100 mg/kg of body weight of the preparation. Untreated animals died 3 to 6 days post infection. The survival rate on the 6th day post infection was about 5% in untreated control animals.

Torulopsis glabrata = assay: Antimycotic in vitro activity, serial dilution test, Torulopsis glabrata; assay type: cell-based; settings: Nakaseomyces glabratus; 28-37° C., 24 to 96 hours
Procedure: as §1

Trichophyton mentagr. = assay: Antimycotic in vitro activity, serial dilution test, Trichophyton mentagr.; assay type: cell-based, Trichophyton mentagrophytes; settings: Sabouraud's test medium, 28-37° C., 96 hours
Procedure: as §1

[1] = test system: dermatophytes, Blastomycetes and yeasts; assay: Antimycotic in vitro activity, serial dilution test, overall comparison; assay type: cell-based
Procedure: as §1

Candida albicans = assay: Antimycotic in vitro activity, serial dilution test, Candida albicans; assay type: cell-based; settings: meat extract/dextrose broth, 28-37° C., 24 to 96 hours
Procedure: as §1

| Compound | MIC (Microsporum canis) | MIC (Aspergillus fumigatus) | MIC (Torulopsis glabrata) | MIC (Trichophyton mentagr.) | MIC (Candida albicans) | action compared with compounds (A) and (B) (Candida) | Action (survival on the 6th day post infection) (Candida) | antimycotic activity compared with compounds (A) and (B) [1] |
| --- | --- | --- | --- | --- | --- | --- | --- | --- |
| OC(C=Cc1ccc(OC(F)(F)F)cc1)(Cn1cncn1)C1(Cl)CC1 (centres unmarked) [Compound I-33] | < 1 mg/L | < 1 mg/L | < 1 mg/L | < 1 mg/L | 8 mg/L (≈ 21.4 µM) | better action than the compounds (A) and (B) | +++++ (very good action = 90% survival on the 6th day post infection) | better antimycotic activity than the compounds (A) and (B) |
| OC(CCc1ccc(F)cc1)(Cn1cncn1)C1(Cl)CC1 (centres unmarked) [Compound I-12] | 4 mg/L (≈ 12.9 µM) | < 1 mg/L | 32 mg/L (≈ 103 µM) | < 1 mg/L | 8 mg/L (≈ 25.8 µM) |  |  | better antimycotic activity than the compounds (A) and (B) |
| OC(CCc1ccc(OC(F)(F)F)cc1)(Cn1cncn1)C1(Cl)CC1 (centres unmarked) [Compound I-24] | 4 mg/L (≈ 10.6 µM) | < 1 mg/L | 4 mg/L (≈ 10.6 µM) | < 1 mg/L | 16 mg/L (≈ 42.6 µM) |  |  | better antimycotic activity than the compounds (A) and (B) |
| CC(C)(CCC(O)(Cn1cncn1)C1(Cl)CC1)Cc1ccc(Cl)cc1 (centres unmarked) [Compound I-17] |  | 4 mg/L (≈ 10.5 µM) | 2 mg/L (≈ 5.23 µM) | 2 mg/L (≈ 5.23 µM) | < 1 mg/L |  |  | better antimycotic activity than the compounds (A) and (B) |
| OC(C=CC1CCCCC1)(Cn1cncn1)C1(Cl)CC1 (centres unmarked) [Compound I-39] |  | 2 mg/L (≈ 6.76 µM) | 16 mg/L (≈ 54.1 µM) | 2 mg/L (≈ 6.76 µM) | 16 mg/L (≈ 54.1 µM) |  |  | better antimycotic activity than the compounds (A) and (B) |
| OC(CCc1ccc(Cl)cc1)(Cn1cncn1)C1(SCc2ccccc2)CC1 (centres unmarked) [Compound I-10] | 8 mg/L (≈ 19.3 µM) | 64 mg/L (≈ 155 µM) | 4 mg/L (≈ 9.66 µM) | < 1 mg/L | 2 mg/L (≈ 4.83 µM) |  |  | better antimycotic activity than the compounds (A) and (B) |
| CC(C)(C)C=CC(O)(Cn1cncn1)C1(Cl)CC1 (centres unmarked) [Compound I-38] | 4 mg/L (≈ 14.8 µM) | 8 mg/L (≈ 29.7 µM) | 4 mg/L (≈ 14.8 µM) | < 1 mg/L | 4 mg/L (≈ 14.8 µM) |  |  | better antimycotic activity than the compounds (A) and (B) |
| OC(CCc1ccccc1Cl)(Cn1cncn1)C1(Cl)CC1 (centres unmarked) [Compound I-19] | 2 mg/L (≈ 6.13 µM) | 2 mg/L (≈ 6.13 µM) | 16 mg/L (≈ 49 µM) | < 1 mg/L | 4 mg/L (≈ 12.3 µM) |  |  | better antimycotic activity than the compounds (A) and (B) |
| OC(CCc1ccccc1)(Cn1cncn1)C1(Cl)CC1 (centres unmarked) [Compound I-23] | 2 mg/L (≈ 6.85 µM) | < 1 mg/L | 8 mg/L (≈ 27.4 µM) | < 1 mg/L | 4 mg/L (≈ 13.7 µM) |  |  | better antimycotic activity than the compounds (A) and (B) |
| OC(CCc1ccc(-c2ccccc2)cc1)(Cn1cncn1)C1(Cl)CC1 (centres unmarked) [Compound I-25] | 2 mg/L (≈ 5.44 µM) | < 1 mg/L | 2 mg/L (≈ 5.44 µM) | < 1 mg/L | < 1 mg/L |  |  | better antimycotic activity than the compounds (A) and (B) |
| Cc1ccc(CCC(O)(Cn2cncn2)C2(Cl)CC2)cc1 (centres unmarked) [Compound I-20] | 2 mg/L (≈ 6.54 µM) | < 1 mg/L | 2 mg/L (≈ 6.54 µM) | < 1 mg/L | 4 mg/L (≈ 13.1 µM) |  |  | better antimycotic activity than the compounds (A) and (B) |

Second part, led by results:

| MIC (Microsporum canis) | MIC (Aspergillus fumigatus) | MIC (Torulopsis glabrata) | MIC (Trichophyton mentagr.) | MIC (Candida albicans) | Compound | action compared with compounds (A) and (B) (Candida) | Action (survival on the 6th day post infection) (Candida) | antimycotic activity compared with compounds (A) and (B) [1] |
| --- | --- | --- | --- | --- | --- | --- | --- | --- |
| < 1 mg/L | < 1 mg/L | < 1 mg/L | < 1 mg/L | < 1 mg/L | Cc1ccc(C=CC(O)(Cn2cncn2)C2(Cl)CC2)cc1 (centres unmarked) [Compound I-28] |  |  | better antimycotic activity than the compounds (A) and (B) |
| 4 mg/L (≈ 12.3 µM) | 2 mg/L (≈ 6.17 µM) | 8 mg/L (≈ 24.7 µM) | < 1 mg/L | 8 mg/L (≈ 24.7 µM) | OC(C=Cc1ccccc1Cl)(Cn1cncn1)C1(Cl)CC1 (centres unmarked) [Compound I-31] |  |  | better antimycotic activity than the compounds (A) and (B) |
|  | 16 mg/L (≈ 40.2 µM) | 4 mg/L (≈ 10 µM) | 8 mg/L (≈ 20.1 µM) | 4 mg/L (≈ 10 µM) | CCCSC1(C(O)(/C=C/c2ccc(Cl)cc2Cl)Cn2cncn2)CC1 (stereo not drawn) [Compound I-3, trans-4-(2,4-dichlorophenyl)-2-(1-propylmercaptocyclopropyl)1-(1,2,4-triazol-1-yl)-but-3-en-2-ol] |  |  | better antimycotic activity than the compounds (A) and (B) |
| 4 mg/L (≈ 11.9 µM) | < 1 mg/L | 2 mg/L (≈ 5.95 µM) | < 1 mg/L | 2 mg/L (≈ 5.95 µM) | CSC1(C(O)(C=Cc2ccc(Cl)cc2)Cn2cncn2)CC1 (centres unmarked) [Compound I-13] | better action than the compounds (A) and (B) | +++++ (very good action = 90% survival on the 6th day post infection) | better antimycotic activity than the compounds (A) and (B) |
| < 1 mg/L | < 1 mg/L | 4 mg/L (≈ 10.9 µM) | < 1 mg/L | 2 mg/L (≈ 5.43 µM) | OC(C=Cc1ccc(Br)cc1)(Cn1cncn1)C1(Cl)CC1 (centres unmarked) [Compound I-30] | better action than the compounds (A) and (B) | +++++ (very good action = 90% survival on the 6th day post infection) | better antimycotic activity than the compounds (A) and (B) |
|  | 4 mg/L (≈ 10.9 µM) | 32 mg/L (≈ 87.4 µM) | 2 mg/L (≈ 5.47 µM) | 8 mg/L (≈ 21.9 µM) | CC(C)SC1(C(O)(CCc2ccc(Cl)cc2)Cn2cncn2)CC1 (centres unmarked) [Compound I-8] |  |  | better antimycotic activity than the compounds (A) and (B) |
|  | < 1 mg/L | 4 mg/L (≈ 10.3 µM) | 2 mg/L (≈ 5.17 µM) | 4 mg/L (≈ 10.3 µM) | OC(C=Cc1ccc(F)c(Br)c1)(Cn1cncn1)C1(Cl)CC1 (centres unmarked) [Compound I-34] | better action than the compounds (A) and (B) | +++ (action = 60% survival on the 6th day post infection) | better antimycotic activity than the compounds (A) and (B) |
|  | 16 mg/L (≈ 41.4 µM) | 16 mg/L (≈ 41.4 µM) | 8 mg/L (≈ 20.7 µM) | 4 mg/L (≈ 10.4 µM) | CCSC1(C(O)(CCc2ccc(Cl)cc2Cl)Cn2cncn2)CC1 (centres unmarked) [Compound I-9] |  |  | better antimycotic activity than the compounds (A) and (B) |
| 4 mg/L (≈ 13.8 µM) | 2 mg/L (≈ 6.9 µM) | 8 mg/L (≈ 27.6 µM) | < 1 mg/L | 4 mg/L (≈ 13.8 µM) | OC(C=Cc1ccccc1)(Cn1cncn1)C1(Cl)CC1 (centres unmarked) [Compound I-32] |  |  | better antimycotic activity than the compounds (A) and (B) |
| < 1 mg/L | 4 mg/L (≈ 10.4 µM) | < 1 mg/L | < 1 mg/L | 8 mg/L (≈ 20.8 µM) | CCSC1(C(O)(C=Cc2ccc(Cl)cc2Cl)Cn2cncn2)CC1 (centres unmarked) [Compound I-16] |  |  | better antimycotic activity than the compounds (A) and (B) |
| 4 mg/L (≈ 11.1 µM) | < 1 mg/L | 2 mg/L (≈ 5.55 µM) | < 1 mg/L | 2 mg/L (≈ 5.55 µM) | OC(CCc1ccc(Cl)cc1Cl)(Cn1cncn1)C1(Cl)CC1 (centres unmarked) [Compound I-22] |  |  | better antimycotic activity than the compounds (A) and (B) |
